Reference: patent US7632928B2, “Method and antibodies for detecting nitrofuran” (Charm Sciences, Inc, priority 2004, dated 2009)

What was measured:
[1] = system: antibody raised against FZDM-Glut-Thyroglobulin immunogen; test: AOZ ELISA competitive binding assay; conditions: positive controls at input levels 0.1 to 10 ppb; PEB vs PBS buffer; plate coated with N-linked FZDM-BSA
Excerpt: An AOZ ELISA competitive binding assay is shown below, where the N-linked direct conjugate of FZDM-BSA is used as a binding partner conjugate coated on the ELISA plate, and the N-linked direct conjugate of FZDM-alpha-amylase is used as the positive control of protein-bound FZDM in comparison with the FZDM positive control. The antibody used in the assay was raised against the prior art FZDM-Glut-Thyroglobulin immunogen. Assays were run in two different buffers comparing PEB (Protein Elution Buffer) vs. PBS (Phosphate buffer saline).

melting point [°C] | dose-responses (% inhibition) [1] | Compound
171 to 173 |  | N#CC=CC(=O)/C=N/N1CC(=O)NC1=O [compound 1, 5-(2,4-Dioxoimidazolidin-1-ylimino)-4-oxo-pent-2-enenitrile]
 | varying dose-responses | N#CC=CC(=O)/C=N/N1CCOC1=O [compound 3, 5-(2-oxo-oxazolidin-3-ylimino)-4-oxo-pent-2-enenitrile]
